From ChEMBL document CHEMBL2440076, “New triarylpyrazoles as broad-spectrum anticancer agents: design, synthesis, and biological evaluation” (Eur J Med Chem, 2013)

Assays:
MDA-MB-435 = experiment: Growth inhibition of human MDA-MB-435 cells after 48 hrs by sulforhodamine B assay; assay type: functional, cell-based; settings: MDA-MB-435, 48 h
DU-145 [1] = experiment: Growth inhibition of human DU145 cells assessed as cell growth at 10 uM after 48 hrs by sulforhodamine B assay; assay type: functional; settings: DU-145, 48 h, read-out: Activity
OVCAR-4 = experiment: Growth inhibition of human OVCAR4 cells assessed as cell growth at 10 uM after 48 hrs by sulforhodamine B assay; assay type: functional; settings: OVCAR-4, 48 h, read-out: Activity
HCT-15 [2] = experiment: Growth inhibition of human HCT15 cells after 48 hrs by sulforhodamine B assay; assay type: functional; settings: HCT-15, 48 h
M14 [3] = experiment: Growth inhibition of human M14 cells assessed as cell growth at 10 uM after 48 hrs by sulforhodamine B assay; assay type: functional; settings: M14, 48 h, read-out: Activity
SW-620 = experiment: Growth inhibition of human SW620 cells assessed as cell growth at 10 uM after 48 hrs by sulforhodamine B assay; assay type: functional; settings: SW-620, 48 h, read-out: Activity
UACC-257 = experiment: Growth inhibition of human UACC257 cells after 48 hrs by sulforhodamine B assay; assay type: functional; settings: UACC-257, 48 h
SNB-19 [4] = experiment: Growth inhibition of human SNB19 cells assessed as cell growth at 10 uM after 48 hrs by sulforhodamine B assay; assay type: functional; settings: SNB-19, 48 h, read-out: Activity
[5] = Growth inhibition of human HCC2998 cells assessed as cell growth at 10 uM after 48 hrs by sulforhodamine B assay; assay type: functional; settings: HCC 2998, 48 h, read-out: Activity
A549 [6] = experiment: Growth inhibition of human A549/ATCC cells assessed as cell growth at 10 uM after 48 hrs by sulforhodamine B assay; assay type: functional; settings: A549, 48 h, read-out: Activity
[7] = Growth inhibition of human Hs 578T cells after 48 hrs by sulforhodamine B assay; assay type: functional
RXF 393 = experiment: Growth inhibition of human RXF393 cells after 48 hrs by sulforhodamine B assay; assay type: functional; settings: RXF 393, 48 h
HCT-15 [8] = experiment: Growth inhibition of human HCT15 cells assessed as cell growth at 10 uM after 48 hrs by sulforhodamine B assay; assay type: functional; settings: HCT-15, 48 h, read-out: Activity
SK-MEL-2 = experiment: Growth inhibition of human SK-MEL-2 cells assessed as cell growth at 10 uM after 48 hrs by sulforhodamine B assay; assay type: functional; settings: SK-MEL-2, 48 h, read-out: Activity
SNB-75 = experiment: Growth inhibition of human SNB75 cells after 48 hrs by sulforhodamine B assay; assay type: functional; settings: SNB-75, 48 h
DU-145 [9] = experiment: Growth inhibition of human DU145 cells after 48 hrs by sulforhodamine B assay; assay type: functional; settings: DU-145, 48 h
SNB-19 [10] = experiment: Growth inhibition of human SNB19 cells after 48 hrs by sulforhodamine B assay; assay type: functional; settings: SNB-19, 48 h
SK-MEL-28 = experiment: Growth inhibition of human SK-MEL-28 cells assessed as cell growth at 10 uM after 48 hrs by sulforhodamine B assay; assay type: functional; settings: SK-MEL-28, 48 h, read-out: Activity
U-251 = experiment: Growth inhibition of human U251 cells after 48 hrs by sulforhodamine B assay; assay type: functional; settings: U-251, 48 h
M14 [11] = experiment: Growth inhibition of human M14 cells after 48 hrs by sulforhodamine B assay; assay type: functional; settings: M14, 48 h
786-0 = experiment: Growth inhibition of human 786-0 cells assessed as cell growth at 10 uM after 48 hrs by sulforhodamine B assay; assay type: functional; settings: 786-0, 48 h, read-out: Activity
[12] = Growth inhibition of human Hs 578T cells assessed as cell growth at 10 uM after 48 hrs by sulforhodamine B assay; assay type: functional; settings: read-out: Activity
OVCAR-3 = experiment: Growth inhibition of human OVCAR3 cells assessed as cell growth at 10 uM after 48 hrs by sulforhodamine B assay; assay type: functional; settings: OVCAR-3, 48 h, read-out: Activity
ACHN = experiment: Growth inhibition of human ACHN cells assessed as cell growth at 10 uM after 48 hrs by sulforhodamine B assay; assay type: functional; settings: read-out: Activity
A549 [13] = experiment: Growth inhibition of human A549/ATCC cells after 48 hrs by sulforhodamine B assay; assay type: functional; settings: A549, 48 h
PC-3 = experiment: Growth inhibition of human PC3 cells after 48 hrs by sulforhodamine B assay; assay type: functional, cell-based; settings: PC-3, 48 h
A498 = experiment: Growth inhibition of human A498 cells after 48 hrs by sulforhodamine B assay; assay type: functional, cell-based; settings: A498, 48 h
KM12 = experiment: Growth inhibition of human KM12 cells assessed as cell growth at 10 uM after 48 hrs by sulforhodamine B assay; assay type: functional; settings: KM12, 48 h, read-out: Activity
HCT-116 = experiment: Growth inhibition of human HCT116 cells after 48 hrs by sulforhodamine B assay; assay type: functional; settings: HCT-116, 48 h
TK-10 = experiment: Growth inhibition of human TK10 cells assessed as cell growth at 10 uM after 48 hrs by sulforhodamine B assay; assay type: functional; settings: TK-10, 48 h, read-out: Activity
HT-29 [14] = experiment: Growth inhibition of human HT-29 cells assessed as cell growth at 10 uM after 48 hrs by sulforhodamine B assay; assay type: functional; settings: HT-29, 48 h, read-out: Activity
SN12C = experiment: Growth inhibition of human SN12C cells after 48 hrs by sulforhodamine B assay; assay type: functional
HT-29 [15] = experiment: Growth inhibition of human HT-29 cells after 48 hrs by sulforhodamine B assay; assay type: functional; settings: HT-29, 48 h
[16] = Growth inhibition of human NCI-ADR-RES cells after 48 hrs by sulforhodamine B assay; assay type: functional
NCI-H322M = experiment: Growth inhibition of human NCI-H322M cells after 48 hrs by sulforhodamine B assay; assay type: functional
[17] = read-out: LC50 (the source's name)

Structure (SMILES): O=C(Nc1cccc(-n2cc(-c3ccncc3)c(-c3ccc(Cl)c(O)c3)n2)c1)c1ccc(N2CCOCC2)c(C(F)(F)F)c1
- GI50 (MDA-MB-435): 2.04 µM
- IC50 (MDA-MB-435): 2.04 µM
- TGI (MDA-MB-435): > 50 µM
- CC50 (MDA-MB-435; [17]): > 50 µM
- growth at 10 µM (DU-145 [1]): 52.7%
- growth at 10 µM (OVCAR-4): 108%
- GI50 (HCT-15 [2]): 1.81 µM
- LC50 (HCT-15 [2]): > 50 µM
- TGI (HCT-15 [2]): 25.3 µM
- growth at 10 µM (M14 [3]): 22.7%
- growth at 10 µM (SW-620): 6.29%
- GI50 (UACC-257): 6.3 µM
- TGI (UACC-257): 36.8 µM
- CC50 (UACC-257; [17]): > 50 µM
- growth at 10 µM (SNB-19 [4]): 65.7%
- growth at 10 µM [5]: 56.4%
- growth at 10 µM (A549 [6]): 31.4%
- GI50 [7]: 1.85 µM
- TGI [7]: > 50 µM
- CC50 [7, 17]: > 50 µM
- GI50 (RXF 393): 0.626 µM
- LC50 (concentration killing 50% of cells) (RXF 393): > 50 µM
- TGI (RXF 393): 2.9 µM
- growth at 10 µM (HCT-15 [8]): 26.2%
- growth at 10 µM (SK-MEL-2): 17.6%
- GI50 (SNB-75): 1.3 µM
- LC50 (lethal concentration, 50% net cell kill) (SNB-75): > 50 µM
- TGI (SNB-75): > 50 µM
- GI50 (DU-145 [9]): 4.2 µM
- LC50 (DU-145 [9]): > 50 µM
- TGI (DU-145 [9]): > 50 µM
- GI50 (SNB-19 [10]): 4.11 µM
- LC50 (concentration killing 50% of cells) (SNB-19 [10]): > 50 µM
- TGI (SNB-19 [10]): > 50 µM
- growth at 10 µM (SK-MEL-28): 1.14%
- GI50 (U-251): 1.85 µM
- LC50 (concentration killing 50% of cells) (U-251): > 50 µM
- TGI (U-251): 24.9 µM
- GI50 (M14 [11]): 1.63 µM
- LC50 (concentration killing 50% of cells) (M14 [11]): 49.6 µM
- TGI (M14 [11]): 9.1 µM
- growth at 10 µM (786-0): 59.6%
- growth at 10 µM [12]: 15.5%
- growth at 10 µM (OVCAR-3): 56%
- growth at 10 µM (ACHN): 36.6%
- GI50 (A549 [13]): 3.08 µM
- LC50 (concentration killing 50% of starting cells) (A549 [13]): > 50 µM
- TGI (A549 [13]): > 50 µM
- GI50 (PC-3): 2.15 µM
- IC50 (PC-3): 2.15 µM
- TGI (PC-3): > 50 µM
- CC50 (PC-3; [17]): > 50 µM
- GI50 (A498): 15.5 µM
- IC50 (A498): 15.5 µM
- TGI (A498): > 50 µM
- CC50 (A498; [17]): > 50 µM
- growth at 10 µM (KM12): 30.6%
- GI50 (HCT-116): 2.87 µM
- TGI (HCT-116): > 50 µM
- CC50 (HCT-116; [17]): > 50 µM
- growth at 10 µM (TK-10): 119%
- growth at 10 µM (HT-29 [14]): 98%
- GI50 (SN12C): 22 µM
- TGI (SN12C): > 50 µM
- CC50 (SN12C; [17]): > 50 µM
- GI50 (HT-29 [15]): 14.4 µM
- TGI (HT-29 [15]): > 50 µM
- CC50 (HT-29 [15]; [17]): > 50 µM
- GI50 [16]: 2.86 µM
- TGI [16]: > 50 µM
- CC50 [16, 17]: > 50 µM
- GI50 (NCI-H322M): > 50 µM
- TGI (NCI-H322M): > 50 µM
- CC50 (NCI-H322M; [17]): > 50 µM
